The results in this text go back to US7504537B2, “Hydroxamic acid derivative and MMP inhibitor containing the same as active ingredient” (Dainippon Sumitomo Pharma Co., Ltd., priority 2001, dated 2009).

Assay type in all cases: biochemical
One experiment addresses T1, MMP-13 (Homo sapiens, UniProt P45452).
T1 construct: a fragment of 767 bp encoding original 84 amino acids of complete MMP-13 and encoding 164 amino acids; made in house; host or cells: E. coli BL21 (DE3), pET11a
As to the kind of experiment: Test 2 Test on MMP-13 inhibition activity (fluorogenic peptide substrate). The following applies: activated MMP-13, 37° C. The text has this:
Test 2 Test on MMP-13 Inhibition Activity
In order to subcloning C-terminal truncated cDNA in which the cDNA encodes procollagenase-3 (proMMP-13) (J. Biol. Chem., 269(24), 16766-16773 (1994)), two synthesized oligonucleotide primer fragments: • (5′-[…]-3′ and 5′-[…]-3′: In former the sequence for specific NdeI site (under line) including first methionine is included, and in latter terminal codon and BamHI site (under lined) are included.) were used with human cartilage cell cDNA library for PCR. Due to these primers and Pfu DNA polymelase (STRATAGENE) for PCR, there was obtained a fragment of 767 bp encoding original 84 amino acids of complete MMP-13 and encoding 164 amino acids. The said fragment was cut out with digestion by NdeI and BamHI, and the fragment was annealed to NdeI site and BamHI site of pET11a (STRATAGENE). The recombinant plasmid was transformed into E. coli BL21 (DE3) and the bacteria were cultivated. The crude cell extract was prepared according to the method of Biochemistry. The said extract was dialyzed with 20 mM Tris-HCl (pH 7.2)/5 mM CaCl2/0.02% NaN3 solution, treated with SP-sepharose HP column (1.6×10 cm, Amasham-Pharmacia biotec), and the eluting was carried out by liner gradient from 0 to 0.3 m of sodium chloride solution (50 ml) (partially purified proMMP-13 was eluted at about 0.2M.) The eluted fraction was dialyzed with 20 mM Tris-HCl (pH 7.9)/5 mM CaCl2/200 mM (NH4)2SO4/0.02% NaN3 solution, treated with phenylsepharose HP column (1.6×5 cm, Amersham-Pharmacia biotec), and the eluting was carried out by liner gradient from 0.2M to 0M sulfuric acid ammonium solution (purified proMMP-13 was eluted at about 50 mM.). The eluted fraction was concentrated by YM-5 ultrafilter membrane, and activated by 4-aminophenyl mercuric acetate. Activated MMP-13 was treated with gel filtration chromatography in accordance with the method of Biochemistry to be separated from propeptide. Inhibiting Test Method
Enzyme activity test was carried out by the method of G. Knight (FEBS Lett., 296(3), 263-266 (1992)).
A mixture of activated MMP-13 (20 nM, 10 μl), buffer solution (70 μl, pH 7.5 solution containing 100 mM Tris-HCl solution, 10 mM calcium chloride solution, 100 mM sodium chloride solution and 0.05% Briji-35 solution), MOCAc-Pro-Leu-Gly-Leu-A2pr(DNP)-Ala-Arg-NH2 in 0.1% DMSO solution (100 μM, 10 μl) and a test compound in DMSO solution was incubated for 1.5 hours at 37° C. The mixture was put on a 96 well-plate (100 μl/wel), and the plate was incubated at 37° C. The enzyme activity in the presence of the compound was measured based on fluorescence intensity (λex 320 nm, λem 405 nm), and IC50 was calculated.

The target of the next experiment is T2, MMP-3 (Homo sapiens, UniProt P08254).
T2 construct: C-terminal truncated cDNA in which the cDNA encodes human prostromelysin; made in house; host or cells: E. coli
T2 sequence (P08254 100-272 limits assumed): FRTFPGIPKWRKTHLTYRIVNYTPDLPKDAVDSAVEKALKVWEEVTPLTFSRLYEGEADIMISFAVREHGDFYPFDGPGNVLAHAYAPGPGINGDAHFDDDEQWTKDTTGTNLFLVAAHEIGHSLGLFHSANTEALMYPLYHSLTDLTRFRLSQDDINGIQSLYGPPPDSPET
The experiment is described as follows: Test 1 Test on MMP-3 inhibiting activity (fluorogenic peptide substrate). The settings on record: activated MMP-3, 37° C.; read-out: MMP-3 inhibition activity value. The protocol:
Test 1 Test on MMP-3 Inhibiting Activity
C-terminal truncated cDNA in which the cDNA encodes human prostromelysin, was subcloned (proMMP-3, cDNA sequence in Nature, 348, 699-704 (1990)), was expressed in E. coli and then, the expressed protein was purified in accordance with the method described in Biochemistry 30, 6476-6483 (1991). proMMP-3 activation was carried out by treating with 1 mM 4-aminophenyl mercuric acetate for 60 minutes at 37° C.
Enzyme activity test was conducted by the method of C. G. Knight (FEBS Lett., 296(3), 263-266 (1992)).
A mixture of activated MMP-3 (20 nM, 10 μl), buffer solution (70 μl, pH 7.5 solution containing 100 mM Tris-HCl solution, 10 mM calcium chloride solution, 100 mM sodium chloride solution and 0.05% Brij-35 solution), MOCAc-Pro-Leu-Gly-Leu-A2pr(DNP)-Ala-Arg-NH2 in 0.1% DMSO solution (100 μM, 10 μl) and a test compound in DMSO solution was incubated for 1.5 hours at 37° C. The mixture was put on a 96 well-plate (100 μl/well) and the plate was cultured at 37° C. The enzyme activity in the presence of the compound was measured based on fluorescence intensity (λex 320 nm, λem 405 nm), and IC50 was calculated.

The next experiment addresses T3, MMP-14 (MT1-MMP) (Homo sapiens, UniProt P50281).
T3 construct: purchased Biogenesis, supplied by Cosmobio (Nakarai Tesku)
The experiment is described as follows: Test 5 MMP-14 (MT1-MMP) inhibiting activity test. The following applies: human recombinant MT1-MMP, 37° C.; read-out: MMP-14 inhibition activity value. The protocol: Test 5 MMP-14 (MTI-MMP) Inhibiting Activity Test
Human recombinant MTI-MMP used the product prepared by Biogenesis and supplied by Cosmobio (Nakarai Tesku).
An assay buffer solution (70 μl, pH 7.5 solution containing 0.1M Tris-HCl solution, 0.1M calcium chloride solution, 10 mM sodium chloride solution and 0.05% Brij-35 solution), 0.1 w/w % a compound in DMSO (10 μl), MMP substrate solution (MOCAc-Pro-Leu-Gly-Leu-A2pr(DNP)-Ala-Arg-NH2 (Peptide Lab.) diluted with the assay buffer solution (50 μM, 10 μl)) and human recombinant MT1-MMP (0.4 pg/10 μl/well) were well agitated under stirring. The enzyme activity of the mixture was measured based on fluorescence intensity (λex 320 nm/λem 405 nm) by a fluorescence reader. After the mixture was incubated at 37° C. for 0.5 hour, the fluorescence intensity (λex 320 nm/λem 405 nm) was measured every hour, and IC50 was calculated.
The inhibition value was calculated by withdrawing average value of blank well from fluorescence mean value of well in which MT1-MMP was added. As the blank was used the mixed solution prepared by adding assay buffer (10 μl) instead of MT1-MMP solution.

In the case of `COCCCN(CC(=O)NO)S(=O)(=O)c1ccc(Oc2ccc(S(C)(=O)=O)cc2)cc1` [Example 43, N^1-Hydroxy-N^2-(3-methoxypropyl)-N^2-({4-[4-(methylsulfonyl)phenoxy]phenyl}sulfonyl)glycinamide], the IC50 was less than 0.5 nM on MMP-13, 8.5 nM on MMP-3 and 82 nM on MMP-14 (MT1-MMP).

Take `COCCN(CC(=O)NO)S(=O)(=O)c1ccc(Oc2ccc(S(C)(=O)=O)cc2)cc1` [Example 44, N^1-Hydroxy-N^2-(2-methoxyethyl)-N^2-({4-[4-(methylsulfonyl)phenoxy]phenyl}sulfonyl)glycinamide]: the IC50 was 0.5 nM at MMP-13, 2.7 nM at MMP-3 and 343 nM at MMP-14 (MT1-MMP).

Consider `CCOCCN(C1(C(=O)NO)CCCC1)S(=O)(=O)c1ccc(Oc2ccc(S(C)(=O)=O)cc2)cc1` [Example 45, 1-[(2-Ethoxyethyl)({4-[4-(methylsulfonyl)phenoxy]phenyl}sulfonyl)amino]-N-hydroxycyclopentanecarboxamide], for which the figures for the IC50 against MMP-13, at MMP-3 and at MMP-14 (MT1-MMP) were 0.6 nM, 1.5 nM and greater than 1500 nM, respectively.

Consider `CCOC(=O)CN(C1(C(=O)NO)CCC1)S(=O)(=O)c1ccc(Oc2ccc(S(C)(=O)=O)cc2)cc1` [Example 46, Ethyl N-{1-[(hydroxyamino)carbonyl]cyclobutyl}-N-({4-[4-(methylsulfonyl)phenoxy]phenyl}sulfonyl)glycinate], for which the results for the IC50 at MMP-13, on MMP-3 and at MMP-14 (MT1-MMP) were 10.5 nM, 11.6 nM and greater than 1500 nM, respectively.

As for `CS(=O)(=O)c1ccc(Oc2ccc(S(=O)(=O)NC3(C(=O)NO)CCC3)cc2)cc1` [Example 48, N-Hydroxy-1-[({4-[4-(methylsulfonyl)phenoxy]phenyl}sulfonyl)amino]cyclobutanecarboxamide], the IC50 against MMP-13 is 6.9 nM; at MMP-3 it was 35.9 nM; at MMP-14 (MT1-MMP) it was greater than 1500 nM.

Regarding `CS(=O)(=O)c1ccc(Oc2ccc(CC3Sc4ccc(C(=O)O)cc4N(CC(=O)NO)C3=O)cc2)cc1` (stereo not drawn) [Example 50], the IC50 on MMP-13 was 3 nM; on MMP-3 it was 38 nM; on MMP-14 (MT1-MMP), greater than 1000 nM.

Regarding `COc1ccc(Oc2ccc(CC3Sc4ccc(C(=O)O)cc4N(CC(=O)NO)C3=O)cc2)cc1` (stereo not drawn) [compound 1, reference compound], the IC50 came out at 7.4 nM against MMP-13, 88 nM on MMP-3 and 87.3 nM at MMP-14 (MT1-MMP).
